Several values for one entry are separate records, joined by “and”; a condition that tells them apart may be missing. Equal entries are not always repeated. Where two headings read alike, the source gives them in different places. Blank lines part the entries; values can stand above or below the compound they belong to.
Assays:
Assay type in all cases: cell-based, human
[1] = system: IL-8 release; test: LPS- or CSE-induced IL-8 release in isolated peripheral blood neutrophils (ELISA); settings: for Maximal % Inhibition of IL-8 release / IC50: 6 h; for IC50: Homo sapiens, Neutrophil, read-out: -log IC50, inhibition of IL-8 release (converted)
Experimental: (§1) Neutrophils and monocytes were isolated from peripheral venous blood by standard laboratory procedures. In brief, peripheral venous blood was mixed with dextran 500 at 3% (in 0.9% saline) in a proportion of 2:1. This mixture was incubated at room temperature for 30 min until erythrocytes were sedimented. The upper phase was carefully collected and added on Ficoll-Paque Histopaque 1077 (Amershan Pharmacia Biotech, Barcelona, Spain) density gradient in a proportion of 3:1. The two phases generated were centrifuged at 150 g, 4° C. for 30 min. Thus, the interface was collected to isolate monocytes, and the pellet obtained (which is consisted a mixture of neutrophils and low proportion of residual erythrocytes and traces of eosinophils and basophils) was resuspended in an erythrocyte lysis buffer (Biolegend, UK) for 5 min in ice. Cell suspension was washed two times with phosphate buffer (PBS).
(§2) CSE was prepared as previously outlined (Milara et al.; Ortiz et al.). Briefly, the smoke of a research cigarette (2R4F; Tobacco Health Research, University of Kentucky, KY, USA) was generated by a respiratory pump (Apparatus Rodent Respirator 680; Harvard, Germany) through a puffing mechanism related to the human smoking pattern (3 puff/min; 1 puff 35 ml; each puff of 2 s duration with 0.5 cm above the filter) and was bubbled into a flask containing 25 ml of pre-warmed (37° C.) RPMI 1640 culture medium supplemented as describe above. The CSE solution was sterilized by filtration through a 0.22-μm cellulose acetate sterilizing system (Corning, N.Y.). The resultant CSE solution was considered to be 100% CSE and was used for experiments within 30 min of preparation. CSE 10% corresponds approximately to the exposure associated with smoking two packs per day (Su et al., 1998). The quality of the prepared CSE solution was assessed based on the absorbance at 320 nm, which is the specific absorption wavelength of peroxynitrite. Stock solutions with an absorbance value of 3.0±0.1 were used. To test for cytotoxicity from CSE, isolated neutrophils and monocytes were treated with CSE concentrations of up to 5% for 24.
(§3) Peripheral neutrophil cell suspension was adjusted to 500×10^3 cells per well in 24-well plates and incubated in RPMI culture medium for 1 h into the incubator at 37° C., 5% CO2. […] Both the stimulus and drug were remained together for 6 h. Supernatants were collected and centrifuged at 120 g for 5 min, and the free-cell supernatant was used to measure IL-8, MMP-9, IL-1β, GM-CSF and CCL-5.
(§4) IL-8 was determined by using commercially available enzyme-linked immunosorbent assay kit for IL-8 (R&D Systems, UK) according to the manufacturer's protocol. MMP-9, IL-1β, GM-CSF and CCL-5 were measured by LUMINEX technology according to the manufacturer's protocol.
(§5) Data were presented as mean±SEM. IC50 values were calculated for each drug and their combinations. Statistical analysis of results was carried out by analysis of variance (ANOVA) followed by Bonferroni test, by Student's t test, or by non-parametric tests as appropriate (GraphPad Software Inc, San Diego, Calif., USA). Significance was accepted when P<0.05. For clinical correlations of lung function and gene expression from neutrophils the non-parametric Spearman correlation analysis was carried out.

[2] = system: MMP-9 release; test: LPS- or CSE-induced MMP-9 release in isolated peripheral blood neutrophils (LUMINEX); settings: for Maximal % Inhibition of MMP-9 release / IC50: 6 h; for IC50: Homo sapiens, Neutrophil, read-out: -log IC50, inhibition of MMP-9 release (converted)
Experimental: as §1, §2, §3, §4, §5

[3] = system: IL-1β release; test: LPS-induced IL-1β release in isolated peripheral blood neutrophils (LUMINEX); settings: for IC50: Homo sapiens, Neutrophil
Experimental: as §1, §3, §4, §5

[4] = system: CCL-5 release; test: LPS-induced CCL-5 release in isolated peripheral blood neutrophils (LUMINEX); settings: for IC50: Homo sapiens, Neutrophil
Experimental: as §1, §3, §4, §5

[5] = system: MKP1; test: Real time RT-PCR of MKP1 mRNA in CSE-stimulated neutrophils from COPD patients; settings: RNO 1 nM and 1 μM, DEX 1 μM, RNO 1 nM plus DEX 1 μM, NAC 1 mM for 1 h, then CSE 5% 6 h
Experimental: (§6) Neutrophils and monocytes were isolated from peripheral venous blood by standard laboratory procedures. In brief, peripheral venous blood was mixed with dextran 500 at 3% (in 0.9% saline) in a proportion of 2:1. This mixture was incubated at room temperature for 30 min until erythrocytes were sedimented. The upper phase was carefully collected and added on Ficoll-Paque Histopaque 1077 (Amershan Pharmacia Biotech, Barcelona, Spain) density gradient in a proportion of 3:1. The two phases generated were centrifuged at 150 g, 4° C. for 30 min. […]
(§7) CSE was prepared as previously outlined (Milara et al.; Ortiz et al.). […] The quality of the prepared CSE solution was assessed based on the absorbance at 320 nm, which is the specific absorption wavelength of peroxynitrite. Stock solutions with an absorbance value of 3.0±0.1 were used. […]
(§8) Total RNA was obtained from isolated neutrophils under basal conditions or after different drug and stimulation periods defined above by using TriPure® Isolation Reagent (Roche, Indianapolis, USA). […] Relative quantification of these transcripts was determined with the 2^−ΔΔCt method using glyceraldehyde phosphate dehydrogenase (GAPDH) as endogenous control (Applied Biosystems; 4352339E) and normalized to control group as previously described (Milara et al., 2009).
(§9) Then, mRNA was isolated and quantified for different genes.

[6] = system: MIF; test: Real time RT-PCR of MIF mRNA in CSE-stimulated neutrophils from COPD patients; settings: RNO 1 nM and 1 μM, DEX 1 μM, RNO 1 nM plus DEX 1 μM, NAC 1 mM for 1 h, then CSE 5% 6 h
Experimental: as §6, §7, §8, §9

[7] = system: p-ERK1/2; test: Western blot of ERK1/2 phosphorylation in CSE-stimulated neutrophils from COPD patients; settings: RNO 1 nM and 1 μM, DEX 1 μM, RNO 1 nM plus DEX 1 μM, NAC 1 mM for 1 h, then CSE 5% 20 min
Experimental: as §6, §7
Western blot analysis was used to detect changes in p-ERK1/2 (42-44 kD). […] Cells were then centrifuged and the total protein was extracted using a lysis buffer consisting of a complete inhibitor cocktail plus 1 mM ethylenediaminetetraacectic acid (Roche Diagnostics Ltd, West Sussex, UK) with 20 mM Tris base, 0.9% NaCl, 0.1% Triton X-100, 1 mM dithiothreitol and 1 μg mL^−1 pepstatin A. The Bio-Rad assay (Bio-Rad Laboratories Ltd., Herts, UK) was used (following manufacturer's instructions) to quantify the level of protein in each sample to ensure equal protein loading. […]

[8] = system: PI3Kδ; test: Real time RT-PCR of PI3Kδ expression in CSE-stimulated neutrophils from COPD patients; settings: RNO 1 nM and 1 μM, DEX 1 μM, RNO 1 nM plus DEX 1 μM, NAC 1 mM, CSE 5%
Experimental: as §6, §7, §8, §9

[9] = system: GCβ; test: Real time RT-PCR of GCβ mRNA in CSE-stimulated neutrophils from COPD patients; settings: RNO 1 nM and 1 μM, DEX 1 μM, RNO 1 nM plus DEX 1 μM, NAC 1 mM, CSE 5%
Experimental: as §6, §7, §8, §9

[10] = system: HDAC2; test: Real time RT-PCR of HDAC2 expression in CSE-stimulated neutrophils from COPD patients; settings: RNO 1 nM and 1 μM, DEX 1 μM, RNO 1 nM plus DEX 1 μM, NAC 1 mM, CSE 5%
Experimental: as §6, §7, §8, §9

[11] = system: intracellular ROS; test: Intracellular reactive oxygen species (ROS) by flow cytometry in whole blood neutrophils from COPD patients; settings: fMLP 1 μM or CSE 5%, 1 h, NAC 1 mM
Experimental: Intracellular reactive oxygen species (ROS) were measured by a flow cytometry assay using 2′,7′-dichlorodihydrofluorescein diacetate (H2DCF-DA, Molecular Probes, UK) as previously outlined (Milara et al., 2010). H2DCF-DA was added for 15 min before stimulus to a final concentration of 5 μM to measure intracellular ROS. The bacterial peptide fMLP was added as stimulus at 1 μM […] to generate intracellular ROS (Elbim et al., 2001). In other experiments, to reproduce in vivo conditions, CSE 5% was added to generate intracellular ROS. Intracellular ROS was measured using fresh whole blood from COPD patients. Blood neutrophils were selected using CD16-Alexa Fluor 647 antibody (molecular probes, UK) as neutrophil marker, and CD14-PerCEP-Cy5.5 mouse antihuman (molecular probes, UK) as monocyte marker in an Epics Profile II flow cytometer. A total of 1 ml of whole blood was pre-incubated at 37° C. for 30 min with RNO ([…] (1 mM) and H2DCF-DA followed by fMLP 1 μM or CSE 5% stimulation for another 1 h. Then erythrocytes were lysed using a commercial erythrocyte lysis buffer (Biolegend, UK) for 10 min. Fluorescence intensity was measured in the polymorphonuclear region of whole blood in an Epics Profile II flow cytometer. Results were expressed as DCF fluorescence in relative fluorescence units (RFU).
To this end, whole blood was stimulated with the bacterial peptide fMLP 1 μM or with CSE 5% in presence or absence of RNO or NAC for 1 h.

[12] = CSE 5%, neutrophils from COPD patients
[13] = CSE 5%, neutrophils from HEALTHY
[14] = LPS (1 μg/ml), neutrophils from COPD patients
[15] = LPS (1 μg/ml), neutrophils from HEALTHY
[16] = LPS (1 μg/ml), 6 h, neutrophils from COPD patients
[17] = LPS (1 μg/ml), 6 h, neutrophils from HEALTHY
[18] = COPD neutrophils stimulated with LPS or CSE, LY-294002 10 μM, NAC 1 mM

IC50 [1, 12]: 15.5 nM
IC50 [1, 14]: 42.7 nM
IC50 [2, 12]: 2.19 nM
IC50 [2, 14]: 46.8 nM
IC50 ([3]; 6 h, LPS (1 μg/ml), 6 h, neutrophils from COPD patients, read-out: -log IC50, inhibition of IL-1β release (converted)): 45.7 nM
IC50 ([3]; LPS, neutrophils from COPD patients, read-out: -log IC50, IL-1β release (converted)): 45.7 nM
IC50 ([4]; 6 h, LPS (1 μg/ml), 6 h, neutrophils from COPD patients, read-out: -log IC50, inhibition of CCL-5 release (converted)): 32.4 nM
IC50 ([4]; LPS, neutrophils from COPD patients, read-out: -log IC50, CCL-5 release (converted)): 32.4 nM
Compound: C[C@@H]1C[C@H]2[C@@H]3CCC4=CC(=O)C=C[C@]4(C)[C@@]3(F)[C@@H](O)C[C@]2(C)[C@@]1(O)C(=O)CO [DEX, dexamethasone]
Maximal % Inhibition of IL-8 release [1, 12]: 20.6%
Maximal % Inhibition of IL-8 release [1, 13]: 94.33 ± 21.7%
IC50 [1, 13]: 17 nM
IC50 [1, 15]: 47.9 nM
Maximal % Inhibition of IL-8 release [1, 14]: 15%
Maximal % Inhibition of IL-8 release [1, 15]: 67.08 ± 11.41%
Maximal % Inhibition of MMP-9 release [2, 12]: 15.4% and 15.44 ± 6.95 %
Maximal % Inhibition of MMP-9 release [2, 13]: 83.9 ± 5.79%
IC50 [2, 13]: 1.38 nM
IC50 [2, 15]: 6.03 nM
Maximal % Inhibition of MMP-9 release [2, 14]: 8.8%
Maximal % Inhibition of MMP-9 release [2, 15]: 96.8 ± 5.1%
IC50 ([3]; 6 h, LPS (1 μg/ml), 6 h, neutrophils from HEALTHY, read-out: -log IC50, inhibition of IL-1β release (converted)): 10.7 nM
IC50 ([3]; LPS, neutrophils from healthy volunteers, read-out: -log IC50, IL-1β release (converted)): 10.7 nM
Maximal % Inhibition of IL-1β release [3, 16]: 77.16 ± 5.69%
Maximal % Inhibition of IL-1β release [3, 17]: 79.58 ± 5.57%
IC50 ([4]; 6 h, LPS (1 μg/ml), 6 h, neutrophils from HEALTHY, read-out: -log IC50, inhibition of CCL-5 release (converted)): 7.24 nM
IC50 ([4]; LPS, neutrophils from healthy volunteers, read-out: -log IC50, CCL-5 release (converted)): 7.24 nM
Maximal % Inhibition of CCL-5 release [4, 16]: 86.30 ± 10.16%
Maximal % Inhibition of CCL-5 release [4, 17]: 83.78 ± 8.64%

Compound: CC(=O)N[C@@H](CS)C(=O)O [NAC, N-acetyl-1-cysteine]
rescue of DEX anti-inflammatory effect on IL-8 release [1, 18]: able to rescue DEX anti-inflammatory effect
rescue of DEX anti-inflammatory effect on MMP-9 release [2, 18]: able to rescue DEX anti-inflammatory effect
effect on CSE-induced down-regulation of MKP1 mRNA expression [5]: effectively increased
effect on CSE-induced increase of MIF mRNA expression [6]: reduced
effect on CSE-induced phosphorylation of ERK1/2 [7]: inhibited
effect on CSE-induced PI3Kδ upregulation [8]: inhibited
effect on CSE-induced GCβ upregulation [9]: inhibited
effect on CSE-induced HDAC2 downregulation [10]: inhibited
effect on ROS generation in neutrophils [11]: inhibited
